Results: patent US20100168243A1, “Renin Inhibitors” (priority 2007, published 2010)

Molecular target: T1, trypsin-activated recombinant human renin (Homo sapiens, UniProt P00797)
T1 sequence (P00797 67-406): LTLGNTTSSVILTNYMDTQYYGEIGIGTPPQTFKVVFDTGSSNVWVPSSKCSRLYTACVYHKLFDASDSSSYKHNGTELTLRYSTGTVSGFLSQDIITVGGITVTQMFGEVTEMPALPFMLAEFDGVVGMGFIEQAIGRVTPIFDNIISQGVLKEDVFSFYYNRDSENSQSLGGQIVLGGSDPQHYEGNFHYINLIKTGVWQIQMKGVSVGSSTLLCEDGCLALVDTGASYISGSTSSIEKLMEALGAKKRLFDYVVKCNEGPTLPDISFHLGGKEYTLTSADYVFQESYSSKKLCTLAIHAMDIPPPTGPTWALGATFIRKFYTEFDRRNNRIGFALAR
Assay: IC50 for renin, fluorescence of quenched peptide substrate (protocols of Example 3 or 4)
Assay type: biochemical
Details: protocols described in Example 3 or 4; class according to the IC50 values; read-out: IC50 for renin, class in words
Protocol: The sequence of this peptide corresponds to the sequence of human angiotensinogen. The following test protocol is used: All reactions are carried out in a flat bottom white opaque microtiter plate. A 4 μL aliquot of 400 μM renin substrate (DABCYL-γ-Abu-[…]EDANS) in 192 μL assay buffer (50 mM BES, 150 mM NaCl, 0.25 mg/mL bovine serum albumin, pH7.0) is added to 4 μL of test compound in DMSO at various concentrations ranging from 10 μM to 1 nM final concentrations. Next, 100 μL of trypsin-activated recombinant human renin (final enzyme concentration of 0.2-2 nM) in assay buffer is added, and the solution is mixed by pipetting. The increase in fluorescence at 495 nm (excitation at 340 nm) is measured for 60-360 min at rt using a Perkin-Elmer Fusion microplate reader. The slope of a linear portion of the plot of fluorescence increases as a function of time is then determined, and the rate is used for calculating percent inhibition in relation to uninhibited control. […]
All reactions are carried out in a low volume, black, 384 well microtiter plate (Greiner Bio-one). […] After 2 hours of reaction at room temperature, the plates were read on a Viewlux™ (Perkin Elmer) with an excitation/emission of 485/530 nm, and using a 505 nm cutoff filter. […]
The IC50 values of the disclosed compounds for renin were determined according to the protocols described in Example 3 or 4. […]

Row | Structure (SMILES) | IC50
1 | COCCCCC(O)(CCN(C)C(=O)[C@H]1C[C@@H](N)[C@@H](O)C1)c1cccc(Cl)c1-c1cccc(C)c1 (stereo partly drawn) [Compound 1, (1S,3R,4S)-3-amino-N-[3-(6-chloro-3′-methyl-2-biphenylyl)-3-hydroxy-7-(methyloxy)heptyl]-4-hydroxy-N-methylcyclopentanecarboxamide] | 0.01 to 50 nM
2 | COCCCC[C@](O)(CCN(C)C(=O)[C@H]1C[C@@H](N)[C@@H](O)C1)c1cccc(Cl)c1-c1cccc(C)c1 [Compound 11, (1S,3R,4S)-3-amino-N—((S)-3-(6-chloro-3′-methylbiphenyl-2-yl)-3-hydroxy-7-methoxyheptyl)-4-hydroxy-N-methylcyclopentanecarboxamide] | 0.01 to 50 nM
